Read-outs that look alike come from different tables or passages of the source.
Legend:
[1] = target: T1, bovine serum albumin (BSA) (Bos taurus, UniProt P02769); assay: RP TLC on plates impregnated with bovine serum albumin; format: binding; conditions: for RP (Rf value from the RP plate impregnated with 2 mg/mL BSA solution): Table S8, external group; for RP (Rf, BSA-impregnated RP plate): Table S4, RP plate impregnated with 2 mg/mL BSA, pH 7.4 mobile phase
T1 construct: purchased Sigma Aldrich
T1 sequence (P02769 25-607): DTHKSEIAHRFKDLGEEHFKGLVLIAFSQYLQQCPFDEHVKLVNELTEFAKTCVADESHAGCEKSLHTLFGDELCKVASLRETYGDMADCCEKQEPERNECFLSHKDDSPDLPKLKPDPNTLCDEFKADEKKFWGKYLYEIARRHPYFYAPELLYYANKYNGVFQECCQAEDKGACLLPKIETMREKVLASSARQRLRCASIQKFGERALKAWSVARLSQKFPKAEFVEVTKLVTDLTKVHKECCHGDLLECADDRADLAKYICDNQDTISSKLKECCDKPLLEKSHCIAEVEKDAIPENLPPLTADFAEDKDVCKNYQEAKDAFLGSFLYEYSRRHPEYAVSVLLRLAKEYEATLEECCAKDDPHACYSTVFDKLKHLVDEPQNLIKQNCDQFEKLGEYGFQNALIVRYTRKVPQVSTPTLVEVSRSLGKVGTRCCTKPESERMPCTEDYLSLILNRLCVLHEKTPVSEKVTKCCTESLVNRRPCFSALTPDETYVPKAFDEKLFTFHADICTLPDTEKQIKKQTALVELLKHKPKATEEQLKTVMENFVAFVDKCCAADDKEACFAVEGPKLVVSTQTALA

[2] = system: plasma protein; conditions: ref DrugBank [7], cited from earlier work
[3] = target: human serum albumin (HSA) (Homo sapiens, UniProt P02768); conditions: for k HSA: Table S5, retention factor, HSA column, pH 7.4, 25 degrees Celsius
Chain of human serum albumin (HSA) (P02768 25-609): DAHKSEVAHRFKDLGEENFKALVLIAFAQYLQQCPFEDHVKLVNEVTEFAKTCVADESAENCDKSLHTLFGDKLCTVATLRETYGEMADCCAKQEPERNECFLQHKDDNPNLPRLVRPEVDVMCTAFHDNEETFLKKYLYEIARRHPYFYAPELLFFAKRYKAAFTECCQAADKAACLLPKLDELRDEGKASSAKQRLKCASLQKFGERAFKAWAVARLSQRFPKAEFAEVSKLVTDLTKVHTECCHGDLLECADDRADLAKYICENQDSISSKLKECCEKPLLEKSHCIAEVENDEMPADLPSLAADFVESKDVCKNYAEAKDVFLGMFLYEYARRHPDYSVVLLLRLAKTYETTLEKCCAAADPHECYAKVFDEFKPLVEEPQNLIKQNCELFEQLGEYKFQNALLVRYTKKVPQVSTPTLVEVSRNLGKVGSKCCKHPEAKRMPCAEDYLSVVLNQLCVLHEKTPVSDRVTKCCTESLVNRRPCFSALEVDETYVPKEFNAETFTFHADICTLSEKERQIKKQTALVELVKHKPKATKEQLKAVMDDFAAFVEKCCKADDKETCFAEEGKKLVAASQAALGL

[4] = RP TLC on non-impregnated control plates; format: physicochemical; conditions: for CRP (Rf value from the non-impregnated RP plate, control): Table S8, external group; for CRP (Rf, control RP plate): Table S4, non-impregnated RP plate, acetonitrile/acetate buffer pH 7.4/methanol 60:20:20
[5] = target: T1, bovine serum albumin (BSA); assay: NP TLC on plates impregnated with bovine serum albumin; format: binding; conditions: for NP (Rf, BSA-impregnated NP plate): Table S3, NP plate impregnated with 2 mg/mL BSA, pH 7.4 mobile phase; for NP (Rf value from the NP plate impregnated with 2 mg/mL BSA solution): Table S8, external group
[6] = HPLC on immobilized artificial membrane column (HPLCIAM); format: physicochemical; conditions: for log k IAM: Table S5, IAM column, pH 7.4; for k IAM: Table S5, retention factor, IAM column, phosphate buffer pH 7.4/acetonitrile 80:20; for kIAM / log kIAM: Table S9, external group
[7] = NP TLC on non-impregnated control plates; format: physicochemical; conditions: for CNP (Rf, control NP plate): Table S3, non-impregnated NP plate, acetonitrile/acetate buffer pH 7.4/methanol 60:20:20; for CNP (Rf value from the non-impregnated NP plate, control): Table S8, external group
[8] = Table S1, coded 1/0; ref DrugBank [7]; cited from earlier work
[9] = Table S6, external group (n = 38), given as fraction
[10] = Table S1, plasma protein binding given as fraction
[11] = human, immobilized hsa column, pH 7.4

SMILES	NP (Rf, BSA-impregnated NP plate) [5]	log k IAM [6]	k IAM [6]	CNP (Rf, control NP plate) [7]	CRP (Rf, control RP plate) [4]	RP (Rf, BSA-impregnated RP plate) [1]	PB [2, 10]	k HSA [3]	further results
CC(=O)Nc1nnc(S(N)(=O)=O)s1 [acetazolamid]									RP (Rf value from the RP plate impregnated with 2 mg/mL BSA solution) [1]: 0.96; PB [2, 9]: 0.98; kHSA [3]: 0.74; log kHSA [3]: -0.13; CRP (Rf value from the non-impregnated RP plate, control) [4]: 0.97
COc1ccc(CCN2CCC(Nc3nc4ccccc4n3Cc3ccc(F)cc3)CC2)cc1 [astemizol]	0.61	1.42	26.27	0.62	0.65	0.62	0.967	13.32	log k HSA [3, 11]: 1.12
OC(CCN1CCCCC1)(c1ccccc1)C1CC2C=CC1C2 (centres unmarked) [biperiden]	0.65	1.62	41.47	0.68	0.87	0.85	0.6	0.58	log k HSA [3, 11]: -0.24
CC(C)NCC(O)COc1ccc(COCCOC(C)C)cc1 (centres unmarked) [bisoprolol]	0.66	0.83	6.74	0.67	0.57	0.56	0.3	1.07	CNS+/- [8]: 0
C=CCN1C[C@H](C(=O)N(CCCN(C)C)C(=O)NCC)C[C@@H]2c3cccc4[nH]cc(c34)C[C@H]21 [carbegoline]	0.68	1.23	17.05	0.68	0.68	0.68	0.41	3.23	log k HSA ([3]; Table S5, HSA, pH 7.4): 0.51
O=C(N[C@H](CO)[C@H](O)c1ccc([N+](=O)[O-])cc1)C(Cl)Cl [chloramphenikol]	0.97	0.03	1.08	0.99	0.89	0.89		0.61	log k HSA ([3]; Table S5, HSA, pH 7.4): -0.21
CN(C)CCOC(c1ccccc1)c1ccccc1 [diphenhydramin]	0.33	0.56	3.66	0.42	0.58	0.54	0.985	1.88	log k HSA ([3]; Table S5, HSA, pH 7.4): 0.27
CCOc1ccc(/C=C2\NCCc3cc(OCC)c(OCC)cc32)cc1OCC [drotaverine]	0.59	1.49	31.24	0.61	0.55	0.58		1.91	CNS+/- [8]: 1; log k HSA [3, 11]: 0.28
COc1ccnc(C[S+]([O-])c2nc3ccc(OC(F)F)cc3[nH]2)c1OC (centres unmarked) [pantoprazole]	0.92	0.34	2.19	0.93	0.85	0.83	0.98	2.09	CNS+/- [8]: 0; log k HSA [3, 11]: 0.32
CCC1(c2ccccc2)C(=O)NCNC1=O [primidone]									RP (Rf value from the RP plate impregnated with 2 mg/mL BSA solution) [1]: 0.97; NP (Rf value from the NP plate impregnated with 2 mg/mL BSA solution) [5]: 0.93; kIAM [6]: 2.02; log kIAM [6]: 0.31; kHSA ([3]; Table S9, external group): 0.22; log kHSA ([3]; Table S9, external group): -0.66; CNP (Rf value from the non-impregnated NP plate, control) [7]: 0.90; CRP (Rf value from the non-impregnated RP plate, control) [4]: 0.93
CO[C@H]1/C=C/O[C@@]2(C)Oc3c(C)c(O)c4c(O)c(c(/C=N/N5CCN(C)CC5)c(O)c4c3C2=O)NC(=O)/C(C)=C\C=C\[C@H](C)[C@H](O)[C@@H](C)[C@@H](O)[C@@H](C)[C@H](OC(C)=O)[C@@H]1C [rifampicin]									RP (Rf value from the RP plate impregnated with 2 mg/mL BSA solution) [1]: 0.94; PB [2, 9]: 0.89; NP (Rf value from the NP plate impregnated with 2 mg/mL BSA solution) [5]: 0.77; kIAM [6]: 8.37; log kIAM [6]: 0.92; kHSA ([3]; Table S9, external group): 0.03; log kHSA [3, 11]: -1.53; CNP (Rf value from the non-impregnated NP plate, control) [7]: 0.73; CRP (Rf value from the non-impregnated RP plate, control) [4]: 0.95
CC[C@H]1OC(=O)[C@H](C)[C@@H](O[C@H]2C[C@@](C)(OC)[C@@H](O)[C@H](C)O2)[C@H](C)[C@@H](O[C@@H]2O[C@H](C)C[C@H](N(C)C)[C@H]2O)[C@](C)(O)C[C@@H](C)/C(=N\OCOCCOC)[C@H](C)[C@@H](O)[C@]1(C)O [roxitromicin]	0.92			0.91	0.80	0.79	0.96	1.03	log k HSA ([3]; Table S5, HSA, pH 7.4): 0.01
CC(C)(C)NC[C@H](O)COc1nsnc1N1CCOCC1 [timolol]									RP (Rf value from the RP plate impregnated with 2 mg/mL BSA solution) [1]: 0.97; PB [2, 9]: 0.10; NP (Rf value from the NP plate impregnated with 2 mg/mL BSA solution) [5]: 0.32; kIAM [6]: 2.88; log kIAM [6]: 0.46; kHSA ([3]; Table S9, external group): 0.13; CNP (Rf value from the non-impregnated NP plate, control) [7]: 0.34; CRP (Rf value from the non-impregnated RP plate, control) [4]: 0.97
COc1cc(Cc2cnc(N)nc2N)cc(OC)c1OC [trimethoprim]									PB [2, 9]: 0.44; NP (Rf value from the NP plate impregnated with 2 mg/mL BSA solution) [5]: 0.59; CNP (Rf value from the non-impregnated NP plate, control) [7]: 0.57
CN(C)CCc1c[nH]c2ccc(C[C@H]3COC(=O)N3)cc12 [zolmitriptane]	0.29	0.52	3.30	0.31	0.86	0.86	0.25	1.7	log k HSA ([3]; Table S5, HSA, pH 7.4): 0.23

Continued, in another order:

NP (Rf, BSA-impregnated NP plate) [5]	log k IAM [6]	k IAM [6]	CNP (Rf, control NP plate) [7]	CRP (Rf, control RP plate) [4]	SMILES	RP (Rf, BSA-impregnated RP plate) [1]	PB [2, 10]	k HSA [3]	further results
0.92	0.04	1.11	0.92	0.90	CCCCCOC(=O)Nc1nc(=O)n([C@@H]2O[C@H](C)[C@@H](O)[C@H]2O)cc1F [capecitabine]	0.89	0.6		
0.96	0.12	1.32	0.96		NS(=O)(=O)c1cc(C2(O)NC(=O)c3ccccc32)ccc1Cl (centres unmarked) [chlortalidone]		0.75	0.85	
0.98	0.84	6.92	0.97	0.63	C[C@]12CC[C@@H]3c4ccc(OC(=O)c5ccccc5)cc4CC[C@H]3[C@@H]1CC[C@@H]2O [estradiol benzoate]	0.62	0.95		
0.99	1.47	29.40	0.99	0.79	C[C@]12CC[C@@H]3c4ccc(O)cc4CC[C@H]3[C@@H]1CCC2=O [estrone]		0.95		
0.65	1.38	23.74	0.66	0.61	O=C(CCCN1CCC(O)(c2ccc(Cl)cc2)CC1)c1ccc(F)cc1 [haloperidol]	0.64	0.92	4.8	log k HSA ([3]; Table S5, HSA, pH 7.4): 0.68
0.96	1.54	34.99	0.96	0.71	CC(=O)[C@H]1CC[C@H]2[C@@H]3CCC4=CC(=O)CC[C@]4(C)[C@H]3CC[C@]12C [progesterone]	0.68	0.975	5.7	log k HSA ([3]; Table S5, HSA, pH 7.4): 0.76
0.50	1.45	28.09	0.54		CC(C)NCC(O)COc1cccc2ccccc12 (centres unmarked) [propranolol]				
0.90	0.67	4.68	0.90	0.87	CCCc1nc2c(C)cc(-c3nc4ccccc4n3C)cc2n1Cc1ccc(-c2ccccc2C(=O)O)cc1 [telmisartan]	0.85	0.995		CNS+/- [8]: 1
	-1.10	0.08	0.89	0.97	CCCCC(=O)N(Cc1ccc(-c2ccccc2-c2nnn[nH]2)cc1)[C@H](C(=O)O)C(C)C [valsartan]		0.955		

— PMC9182007, “Statistical Methods in the Study of Protein Binding and Its Relationship to Drug Bioavailability in Breast Milk” (Molecules, 2022)
